Assay results: patent publication US8299056B2 (Signal Pharmaceuticals, LLC, priority 2008, dated 2012)
Like-named read-outs stand apart in the source and are kept apart here.

Biological target: T1, Syk (Homo sapiens, UniProt P43405)
T1 construct: purchased Carna Biosciences
Experiment: Syk HTRF assay
Format: biochemical
Description: Test compounds were prepared at a concentration of 1.5 mM in DMSO followed by 3-fold dilutions in Greiner […] polypropylene plates. A 1:4 dilution of compounds by 8 μL/well transfer from the polypropylene plates to 24 μL/well Assay Buffer in Costar 3710 384 well black plates was then performed. Kinases (13 μL/well) or Assay Buffer only (background controls; 50 mM HEPES pH 7.6, 1 mM DTT, 10 mM MgCl2, 0.01% Triton X100, 0.01% BSA and 0.1 mM EDTA) were added to Costar 3710 384-well black plates for the HTRF assays (Carna Biosciences) and compound was added from the 1:4 dilution plate. Syk start mix (87.5 μM ATP, 80 nM Substrate Peptide (American Peptide Company 332722) was added and the mixture was incubated at room temperature for 1 hour. Syk Stop Solution (120 mM EDTA in dilution buffer) was then added to the Syk HTRF assay plate and incubated at room temperature on a shaker for 2 minutes. Syk Antibody Mix (4.86 μg/mL DyLight 647 Streptavidin (Pierce 21824); 1 μg/mL Lance Eu-Anti-Phosphotyrosine (PerkinElmer AD0069)) was added to the Syk HTRF assay plate and the mixture was further incubated at room temperature for >4 h. Time resolved fluorescence was read in assay plates on a PerkinElmer EnVision. HTRF assays were performed using 320 nm excitation, 60 μs delay, 665 nm and 615 nm emission. Data was expressed by division of 665 nm by 615 nm emissions.

[1] = activity levels A-D, read-out: Activity Level (IC50 in the Syk HTRF assay)
[2] = read-out: Activity Level (Syk HTRF assay IC50)
[3] = IC50 activity level, read-out: Activity Level

IC50 [1] [nM]	IC50 [3] [nM]	SMILES	other results
	1000 to 10000	C[C@@H](CN)Cc1cccc2nc(Nc3ccccc3)nn12 [Example 458, (R)-5-(3-amino-2-methylpropyl)-N-phenyl-[1,2,4]triazolo[1,5-a]pyridin-2-amine]	
	0.005 to 250	Nc1cc(-c2cccc3nc(Nc4ccccc4)nn23)ccn1 [Example 445, 5-(2-aminopyridin-4-yl)-N-phenyl-[1,2,4]triazolo[1,5-a]pyridin-2-amine]	
	250 to 500	c1ccc(Nc2nc3cccc(CC4CCCNC4)n3n2)cc1 (centres unmarked) [Example 478, N-phenyl-5-(piperidin-3-ylmethyl)-[1,2,4]triazolo[1,5-a]pyridin-2-amine]	
	0.005 to 250	O[C@H]1CC[C@@H](Nc2cccc3nc(Nc4ccccc4)nn23)CC1 [Example 471, cis-4-(2-(phenylamino)-[1,2,4]triazolo[1,5-a]pyridin-5-ylamino)cyclohexanol]	
	1000 to 10000	c1ccc(Nc2nc3cccc(-c4ccnc(N5CCNCC5)c4)n3n2)cc1 [Example 520, N-phenyl-5-(2-(piperazin-1-yl)pyridin-4-yl)-[1,2,4]triazolo[1,5-a]pyridin-2-amine]	
	500 to 1000	c1cc(CC2CCOCC2)n2nc(Nc3ccc(-c4nc[nH]n4)cc3)nc2c1 [Example 557, N-(4-(1H-1,2,4-triazolo-3-yl)phenyl)-5-((tetrahydro-2H-pyran-4-yl)methyl)-[1,2,4]triazolo[1,5-a]pyridin-2-amine]	
	0.005 to 250	Nc1n[nH]c2cc(Nc3nc4cccc(NC5CCCNC5)n4n3)ccc12 (stereo in doubt) [Example 450, (R)-N^2-(3-amino-1H-indazol-6-yl)-N^5-(piperidin-3-yl)-[1,2,4]triazolo[1,5-a]pyridin-2,5-diamine]	
	500 to 1000	Cc1noc2cc(Nc3nc4cccc(CC5CCOCC5)n4n3)ccc12 [Example 537, 3-methyl-N-(5-((tetrahydro-2H-pyran-4-yl)methyl)-[1,2,4]triazolo[1,5-a]pyridin-2-yl)benzo[d]isoxazol-6-amine]	
	0.005 to 250	COc1cc(-c2cccc3nc(Nc4ccc5c(c4)NC(=O)C5(C)C)nn23)ccn1 [Example 559, 6-(5-(2-methoxypyridin-4-yl)-[1,2,4]triazolo[1,5-a]pyridin-2-ylamino)-3,3-dimethylindolin-2-one]	
	1000 to 10000	c1ccc(Nc2nc3cccc(-c4cccnc4)n3n2)cc1 [Example 524, N-phenyl-5-(pyridin-3-yl)-[1,2,4]triazolo[1,5-a]pyridin-2-amine]	
	0.005 to 250	c1ccc(Nc2nc3cccc(N[C@H]4CCCNC4)n3n2)cc1 [Example 507, (S)-N^2-phenyl-N^5-(piperidin-3-yl)-[1,2,4]triazolo[1,5-a]pyridin-2,5-diamine]	

Continued, molecule first:

SMILES	IC50 [1] [nM]	IC50 [3] [nM]	other results
COc1ccccc1Nc1nc2cccc(N[C@H]3CC[C@@H](O)CC3)n2n1 [Example 339, cis-4-(2-(2-methoxyphenylamino)-[1,2,4]triazolo[1,5-a]pyridin-5-ylamino)cyclohexanol]	1000 to 10000		
CN1C(=O)C(C)(C)c2ccc(Nc3nc4cccc(CC5CCOCC5)n4n3)cc21 [Example 143, 1,3,3-trimethyl-6-(5-((tetrahydro-2H-pyran-4-yl)methyl)-[1,2,4]triazolo[1,5-a]pyridin-2-ylamino)indolin-2-one]			IC50 [2]: 0.005 to 250 nM
COCc1nc2ccc(-c3cccc4nc(Nc5ccc(C(F)(F)F)cc5)nn34)cc2[nH]1 [Example 401, 5-(2-(methoxymethyl)-1H-benzo[d]imidazol-6-yl)-N-(4-(trifluoromethyl)phenyl)-[1,2,4]triazolo[1,5-a]pyridin-2-amine]		0.005 to 250	
OC[C@H](Nc1cccc2nc(Nc3ccc(C(F)(F)F)cc3)nn12)c1ccccc1 [Example 412, (R)-2-phenyl-2-(2-(4-(trifluoromethyl)phenylamino)-[1,2,4]triazolo[1,5-a]pyridin-5-ylamino)ethanol]		1000 to 10000	
CC(C)(O)[C@H]1CC[C@H](Nc2cccc3nc(Nc4ccc(C(F)(F)F)cc4)nn23)CC1 (stereo in doubt) [Example 397, trans-2-(4-(2-(4-(trifluoromethyl)phenylamino)-[1,2,4]triazolo[1,5-a]pyridin-5-ylamino)cyclohexyl)propan-2-ol]	1000 to 10000		
C[C@@H](CO)Nc1cccc2nc(Nc3ccc(C(F)(F)F)cc3)nn12 [Example 329, (S)-2-(2-(4-(trifluoromethyl)phenylamino)-[1,2,4]triazolo[1,5-a]pyridin-5-ylamino)propan-1-ol]	500 to 1000		
O[C@H]1CCC[C@H](Nc2cccc3nc(Nc4ccc(C(F)(F)F)cc4)nn23)C1 (single isomer, unassigned; enantiomer 2) [Example 226, trans-3-(2-(4-(trifluoromethyl)(phenylamino)-[1,2,4]triazolo[1,5-a]pyridin-5-ylamino)cyclohexanol (enantiomer 2)]	500 to 1000		
CNC(=O)c1ccc(Nc2nc3cccc(-c4cccc(F)c4)n3n2)cc1 [compound 12, 4-(5-(3-fluorophenyl)-[1,2,4]triazolo[1,5-a]pyridin-2-ylamino)-N-methylbenzamide]			IC50 [2]: 250 to 500 nM
CN(CCO)c1cccc2nc(Nc3ccc4c(c3)NC(=O)C4(C)C)nn12 [Example 153, 6-(5-((2-hydroxyethyl)(methyl)amino)-[1,2,4]triazolo[1,5-a]pyridin-2-ylamino)-3,3-dimethylindolin-2-one]			IC50 [2]: 0.005 to 250 nM
Cc1n[nH]c2cc(Nc3nc4cccc(N[C@H]5CC[C@@H](O)CC5)n4n3)cc(F)c12 [Example 164, cis-4-(2-(4-fluoro-3-methyl-1H-indazol-6-ylamino)-[1,2,4]triazolo[1,5-a]pyridin-5-ylamino)cyclohexanol]			IC50 [2]: 0.005 to 250 nM
Cc1cc(C)cc(Nc2nc3cccc(N[C@H]4CC[C@@H](O)CC4)n3n2)c1 [Example 314, cis-4-(2-(3,5-dimethylphenylamino)-[1,2,4]triazolo[1,5-a]pyridin-5-ylamino0)cyclohexaol]	0.005 to 250		
O=C1c2ccc(Nc3nc4cccc(N[C@H]5CC[C@@H](O)CC5)n4n3)cc2CN1CCO [Example 198, cis-5-(5-(4-hydroxycyclohexylamino)-[1,2,4]triazolo[1,5-a]pyridin-2-ylamino)-2-(2-hydroxyethyl)isoindolin-1-one]			IC50 [2]: 0.005 to 250 nM
Cn1ncc2ccc(Nc3nc4cccc(NC5CCOCC5)n4n3)cc21 [Example 161, N^2-(1-methyl-1H-indazol-6-yl)-N^5-(tetrahydro-2H-pyran-4-yl)-[1,2,4]triazolo[1,5-a]pyridin-2,5-diamine]			IC50 [2]: 0.005 to 250 nM
CNC(=O)c1ccc(Nc2nc3cccc(N4CC[C@H](O)C4)n3n2)cc1 [Example 249, (S)-4-(5-(3-hydroxypyrrolidin-1-yl)-[1,2,4]triazolo[1,5-a]pyridin-2-ylamino)-N-methylbenzamide]	500 to 1000		
FC(F)(F)c1ccc(Nc2nc3cccc(O[C@H]4CCCNC4)n3n2)cc1 [Example 362, (S)-5-(piperidin-3-yloxy)-N-(4-(trifluoromethyl)phenyl)-[1,2,4]triazolo[1,5-a]pyridin-2-amine]	1000 to 10000		
CC1(C)C(=O)Nc2cc(Nc3nc4cccc(N5CC(O)C5)n4n3)ccc21 [Example 170, 6-(5-(3-hydroxyazetidin-1-yl)-[1,2,4]triazolo[1,5-a]pyridin-2-ylamino)-3,3-dimethylindolin-2-one]			IC50 [2]: 0.005 to 250 nM
NCCOc1cccc2nc(Nc3ccc(C(F)(F)F)cc3)nn12 [Example 296, 5-(2-aminoethoxy)-N-(4-(trifluoromethyl)phenyl)-[1,2,4]triazolo[1,5-a]pyridin-2-amine]	500 to 1000		
c1ccc(Nc2nc3cccc(-c4ccccc4)n3n2)cc1 [Example 98]			IC50 [2]: 500 to 1000 nM
Cc1n[nH]c2cc(Nc3nc4cccc(C(O)C5CCOCC5)n4n3)ccc12 (centres unmarked) [Example 200, (2-(3-methyl-1H-indazol-6-ylamino)-[1,2,4]triazolo[1,5-a]pyridin-5-yl)(tetrahydro-2H-pyran-4-yl)methanol]	500 to 1000		
O=C1CN(Cc2cccc3nc(Nc4ccc(C(F)(F)F)cc4)nn23)C(=O)N1 [Example 252, 1-((2-(4-(trifluoromethyl)phenylamino)-[1,2,4]triazolo[1,5-a]pyridin-5-yl)methyl)imidazolidine-2,4-dione]	1000 to 10000		
COCc1nc2ccc(Nc3nc4cccc(CC5CCOCC5)n4n3)cc2[nH]1 [compound 132, N-(2-(methoxymethyl)-1H-benzo[d]imidazol-6-yl)-5-((tetrahydro-2H-pyran-4-yl)methyl)-[1,2,4]triazolo[1,5-a]pyridin-2-amine]			IC50 [2]: 0.005 to 250 nM
CN(c1cccc2nc(Nc3ccc(C(F)(F)F)cc3)nn12)[C@H]1CC[C@@H](O)CC1 [Example 266, cis-4-(methyl(2-(4-(trifluoromethyl)phenylamino)-[1,2,4]triazolo[1,5-a]pyridin-5-yl)amino)cyclohexanol]	1000 to 10000		
OC1CCN(c2cccc3nc(Nc4ccc(C(F)(F)F)cc4)nn23)CC1 [Example 345, 1-(2-(4-(trifluoromethyl)phenylamino)-[1,2,4]triazolo[1,5-a]pyridin-5-yl)piperidin-4-ol]	500 to 1000		
Fc1ccc(Nc2nc3cccc(-c4ccc5cn[nH]c5c4)n3n2)cc1 [Example 436, N-(4-fluorophenyl)-5-(1H-indazol-6-yl)-[1,2,4]triazolo[1,5-a]pyridin-2-amine]		0.005 to 250	
